# Laboratory results from patent US20250313563A1, “GLYCOGEN SYNTHASE KINASE 3 INHIBITORS AND USES THEREOF” (The Broad Institute, Inc., priority 2022, published 2025).
# Where two headings read alike, the source gives them in different places.
# What was measured:
# [1] = target: GSK3b (GST-full length GSK3b) (Homo sapiens (Human), UniProt P49841); assay: GSK3b TR-FRET kinase assay; type: biochemical
# How it was run: (§1)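 IC50s came from the normalized 665/615 TR-FRET ratio after Tb-anti-pSer641 antibody and streptavidin-d2 detection of phosphorylated biotin-glycogen synthase peptide (200 nM). ATP was 4 μM for GSK3α, 2 μM for GSK3b, or 1 mM; 1 nM enzyme, 100 min, ambient, pH 7.5, after 30-min compound preincubation.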
# [2] = target: GSK3α (GST-full length GSK3α) (Homo sapiens (Human), UniProt P49840); assay: GSK3α TR-FRET kinase assay; type: biochemical
# Chain of GSK3α (GST-full length GSK3α) (P49840 whole entry): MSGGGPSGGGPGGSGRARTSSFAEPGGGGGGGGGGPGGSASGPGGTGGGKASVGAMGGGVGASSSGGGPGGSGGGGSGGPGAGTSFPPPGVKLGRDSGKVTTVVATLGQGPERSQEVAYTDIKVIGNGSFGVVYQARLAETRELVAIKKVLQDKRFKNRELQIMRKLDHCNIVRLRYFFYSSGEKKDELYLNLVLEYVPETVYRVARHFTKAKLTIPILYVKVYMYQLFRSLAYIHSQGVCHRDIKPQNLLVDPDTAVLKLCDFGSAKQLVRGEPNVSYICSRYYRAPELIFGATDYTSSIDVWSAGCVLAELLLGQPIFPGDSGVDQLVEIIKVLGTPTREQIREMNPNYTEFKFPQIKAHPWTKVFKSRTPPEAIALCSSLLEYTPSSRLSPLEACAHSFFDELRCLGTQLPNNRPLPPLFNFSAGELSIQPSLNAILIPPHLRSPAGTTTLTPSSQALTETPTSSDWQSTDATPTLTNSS
# How it was run: as §1
# [3] = 1 nM GSK3b, 2 μM ATP, 30 minute preincubation, geometric mean, read-out: GSK3-B TR-FRET BIOCHEMICAL (TR-FRET), GMean, IC50
# [4] = 1 nM GSK3α, 4 μM ATP, 30 minute preincubation, geometric mean, read-out: GSK3-A TR-FRET BIOCHEMICAL (TR-FRET), GMean, IC50
# [5] = 1 nM GSK3b, 2 μM ATP, 30 minute preincubation, Table 16, read-out: GSK3-B TR-FRET BIOCHEMICAL (TR-FRET), IC50
# [6] = 1 nM GSK3α, 4 μM ATP, 30 minute preincubation, Table 16, read-out: GSK3-A TR-FRET BIOCHEMICAL (TR-FRET), IC50
# [7] = 1 nM GSK3b, 2 μM ATP, 30 minute preincubation, read-out: GSK3-B TR-FRET BIOCHEMICAL (TR-FRET), IC50
# [8] = 1 nM GSK3α, 4 μM ATP, 30 minute preincubation, read-out: GSK3-A TR-FRET BIOCHEMICAL (TR-FRET), IC50
# Chain of GSK3b (GST-full length GSK3b) (P49841 whole entry): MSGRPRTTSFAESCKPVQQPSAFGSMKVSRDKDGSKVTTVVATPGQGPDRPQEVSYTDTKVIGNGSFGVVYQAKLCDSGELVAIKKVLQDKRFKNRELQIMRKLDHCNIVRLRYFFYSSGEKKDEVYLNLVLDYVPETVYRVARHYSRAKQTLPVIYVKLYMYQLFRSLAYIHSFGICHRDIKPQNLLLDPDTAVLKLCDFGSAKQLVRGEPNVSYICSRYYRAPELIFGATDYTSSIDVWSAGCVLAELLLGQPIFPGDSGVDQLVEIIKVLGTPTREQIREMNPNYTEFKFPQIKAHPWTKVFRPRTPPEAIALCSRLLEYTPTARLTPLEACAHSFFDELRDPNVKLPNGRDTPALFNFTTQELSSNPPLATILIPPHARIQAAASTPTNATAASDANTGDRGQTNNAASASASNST
"IC50 [1, 3] [µM]","IC50 [2, 4] [µM]",Structure (SMILES),other results
0.1 to 1,≤ 0.1,CCC1(c2cccc(-c3ccnc(C)c3)c2)C2=C(CC(C)(C)CC2=O)Nc2n[nH]cc21 (stereo not drawn) [Compound 840857],
,,CCC1(COC)C2=C(CC(C)(C)CC2=O)Nc2n[nH]cc21 (stereo not drawn) [Compound 841866],"IC50 [1, 5]: > 5 µM; IC50 [2, 6]: > 5 µM"
,,CN1CCC2(C1)C1=C(CC(C)(C)CC1=O)Nc1n[nH]cc12 (stereo not drawn) [Compound 841867],"IC50 [1, 5]: > 5 µM; IC50 [2, 6]: > 5 µM"
1 to 5,0.1 to 1,CCC1(c2cccc(N(C)c3ccncc3)c2)C2=C(CC(C)(C)CC2=O)Nc2n[nH]cc21 (stereo not drawn) [Compound 853910],
0.1 to 1,≤ 0.1,CCC1(c2cccc(-n3ccnc3)c2)C2=C(CC(C)(C)CC2=O)Nc2n[nH]cc21 (stereo not drawn) [Compound 854926],
> 5,> 5,CC1(C)CC(=O)C2=C(C1)Nc1n[nH]c(CCC(F)(F)F)c1C2(C)c1ccccc1 (stereo not drawn) [Compound 856948],
,,CC[C@@]1(c2cccc(C(F)(F)F)c2)C2=C(CCN(C(C)C)C2=O)Nc2n[nH]cc21 [Compound 857336],"IC50 [1, 7]: 0.1 to 1 µM; IC50 [2, 8]: ≤ 0.1 µM"
,,CC[C@]1(c2cccc(C(F)(F)F)c2)C2=C(CCN(C(C)C)C2=O)Nc2n[nH]cc21 [Compound 857362],"IC50 [1, 7]: > 5 µM; IC50 [2, 8]: > 5 µM"
,,CCC1(c2ccccc2)C2=C(Nc3n[nH]cc31)C1CCC1C2=O (stereo not drawn) [Compound 861716],"IC50 [1, 5]: > 5 µM; IC50 [2, 6]: 1 to 5 µM"
,,CCC1(c2ccccc2)C2=C(CSC(C)(C)C2=O)Nc2n[nH]cc21 (stereo not drawn) [Compound 862028],"IC50 [1, 7]: 1 to 5 µM; IC50 [2, 8]: 0.1 to 1 µM"
> 5,1 to 5,CCC1(c2cccc(-c3ccnc(C)c3)c2)C2=C(CC(C)(C)CC2=O)Nc2n[nH]cc21 (stereo not drawn) [Compound 865170],
0.1 to 1,≤ 0.1,CCC1(c2cccc(N3CCCC3=O)c2)C2=C(CC(C)(C)CC2=O)Nc2n[nH]cc21 (stereo not drawn) [Compound 865171],
,,CC1(C)CC(=O)C2=C(C1)Nc1n[nH]cc1C21CCC(C(F)(F)F)CC1 (stereo not drawn) [Compound 865193],"IC50 ([1]; 1 nM GSK3b, 2 μM ATP, 30 minute preincubation, Table 16, read-out: GSK3-B TR-FRET BIOCHEMICAL (TR-FRET)): ≤ 0.1 µM; IC50 ([1]; GSK3-B (TR-FRET 1 mM ATP), GMean, IC50, 1 mM ATP, geometric mean): 1 to 5 µM; IC50 ([2]; 1 nM GSK3α, 4 μM ATP, 30 minute preincubation, Table 16, read-out: GSK3-A TR-FRET BIOCHEMICAL (TR-FRET)): ≤ 0.1 µM; IC50 ([2]; GSK3-A (TR-FRET 1 mM ATP), GMean, IC50, 1 mM ATP, geometric mean): 0.1 to 1 µM"
1 to 5,0.1 to 1,CCC1(c2cccc(CN(C)C(C)=O)c2)C2=C(CC(C)(C)CC2=O)Nc2n[nH]cc21 (stereo not drawn) [Compound 865194],
> 5,0.1 to 1,CCC1(c2cccc(CN(C)C(=O)C(C)C)c2)C2=C(CC(C)(C)CC2=O)Nc2n[nH]cc21 (stereo not drawn) [Compound 865195],
> 5,0.1 to 1,CCC1(c2cccc(CN(C)C(=O)COC)c2)C2=C(CC(C)(C)CC2=O)Nc2n[nH]cc21 (stereo not drawn) [Compound 865196],
1 to 5,0.1 to 1,CC[C@]1(c2ccccc2)C2=C(Nc3n[nH]cc31)[C@@H](C)C[C@H](C)C2=O [Compound 865198],
> 5,1 to 5,CC[C@@]1(c2ccccc2)C2=C(Nc3n[nH]cc31)[C@H](C)C[C@@H](C)C2=O [Compound 865199],
0.1 to 1,≤ 0.1,CC[C@]1(c2ccccc2)C2=C(Nc3n[nH]cc31)[C@H](C)C[C@@H](C)C2=O [Compound 865201],
> 5,> 5,CC[C@@]1(c2ccccc2)C2=C(Nc3n[nH]cc31)[C@@H](C)C[C@H](C)C2=O [Compound 865202],
,,CCC1(c2cccc(C(F)(F)F)c2)C2=C(CCNC2=O)Nc2n[nH]cc21 (stereo not drawn) [Compound 870263],"IC50 [1, 7]: > 5 µM; IC50 [2, 8]: 0.1 to 1 µM"
> 5,0.1 to 1,CCC1(c2cccc(N(C)c3ccncc3)c2)C2=C(CC(C)(C)CC2=O)Nc2n[nH]cc21 (stereo not drawn) [Compound 874261],
0.1 to 1,≤ 0.1,CCC1(c2cccc(N(C)c3ccccn3)c2)C2=C(CC(C)(C)CC2=O)Nc2n[nH]cc21 (stereo not drawn) [Compound 874294],
≤ 0.1,≤ 0.1,CCC1(c2cccc(N(C)c3cccnc3)c2)C2=C(CC(C)(C)CC2=O)Nc2n[nH]cc21 (stereo not drawn) [Compound 874298],
> 5,0.1 to 1,CCC1(c2cccc(N(C)c3cccnc3)c2)C2=C(CC(C)(C)CC2=O)Nc2n[nH]cc21 (stereo not drawn) [Compound 874299],
≤ 0.1,≤ 0.1,CCC1(c2cccc(N3CCOCC3)c2)C2=C(CC(C)(C)CC2=O)Nc2n[nH]c(C)c21 (stereo not drawn) [Compound 874312],
